We go through 21 compounds from patent publication US10526320B2, “Pyrrolidine derivatives as PPAR agonists” (GUANGDONG RAYNOVENT BIOTECH CO., LTD., priority 2016, dated 2020).

Where two headings read alike, the source gives them in different places. Bounds are passed on as bounds.

Common to all, as to type: cell-based
In test [1] the target is T1, PPAR Alpha (Homo sapiens, UniProt Q07869).
T1 sequence (Q07869 1-468): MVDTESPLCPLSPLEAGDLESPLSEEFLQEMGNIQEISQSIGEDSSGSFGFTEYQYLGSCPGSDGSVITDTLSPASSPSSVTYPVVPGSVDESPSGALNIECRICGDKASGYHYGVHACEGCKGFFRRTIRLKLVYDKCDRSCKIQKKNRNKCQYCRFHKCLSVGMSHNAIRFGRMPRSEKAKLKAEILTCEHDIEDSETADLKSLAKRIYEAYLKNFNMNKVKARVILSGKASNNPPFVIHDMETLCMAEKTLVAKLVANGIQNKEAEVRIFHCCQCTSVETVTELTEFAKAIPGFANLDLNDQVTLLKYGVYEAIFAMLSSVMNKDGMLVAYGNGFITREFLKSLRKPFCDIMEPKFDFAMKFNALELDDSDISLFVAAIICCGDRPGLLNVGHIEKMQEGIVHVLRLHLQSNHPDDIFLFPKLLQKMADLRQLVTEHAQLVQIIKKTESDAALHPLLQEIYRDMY
The test can be described thus: PathHunter NHR protein interaction / nuclear translocation agonist test, PPAR Alpha. The following applies: for EC50: agonist mode, read-out: PPAR Alpha EC50; for Emax: read-out: PPAR Alpha Maximum Activation Response %.

Test [2] concerns the target T2, PPAR Delta (Homo sapiens, UniProt Q03181).
T2 sequence (Q03181 1-441): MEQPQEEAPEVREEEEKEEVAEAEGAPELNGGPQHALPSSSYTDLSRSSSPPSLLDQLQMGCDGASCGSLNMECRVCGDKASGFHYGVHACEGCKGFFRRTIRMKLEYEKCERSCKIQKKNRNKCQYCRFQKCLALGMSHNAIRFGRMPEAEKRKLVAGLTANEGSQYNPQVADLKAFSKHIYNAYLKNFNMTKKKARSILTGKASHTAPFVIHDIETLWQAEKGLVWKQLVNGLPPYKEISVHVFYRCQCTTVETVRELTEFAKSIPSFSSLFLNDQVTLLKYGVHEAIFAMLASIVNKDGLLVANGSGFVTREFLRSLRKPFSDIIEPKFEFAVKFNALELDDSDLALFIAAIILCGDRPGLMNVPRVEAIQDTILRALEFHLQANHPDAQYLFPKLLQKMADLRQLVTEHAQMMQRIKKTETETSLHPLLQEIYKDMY
In words: PathHunter NHR protein interaction / nuclear translocation agonist test, PPAR Delta. As to conditions: for EC50: agonist mode, read-out: PPAR Delta EC50; for Emax: read-out: PPAR Delta Maximum Activation Response %.

The target of test [3] is T3, PPAR Gamma (Homo sapiens, UniProt P37231).
T3 sequence (P37231 1-505): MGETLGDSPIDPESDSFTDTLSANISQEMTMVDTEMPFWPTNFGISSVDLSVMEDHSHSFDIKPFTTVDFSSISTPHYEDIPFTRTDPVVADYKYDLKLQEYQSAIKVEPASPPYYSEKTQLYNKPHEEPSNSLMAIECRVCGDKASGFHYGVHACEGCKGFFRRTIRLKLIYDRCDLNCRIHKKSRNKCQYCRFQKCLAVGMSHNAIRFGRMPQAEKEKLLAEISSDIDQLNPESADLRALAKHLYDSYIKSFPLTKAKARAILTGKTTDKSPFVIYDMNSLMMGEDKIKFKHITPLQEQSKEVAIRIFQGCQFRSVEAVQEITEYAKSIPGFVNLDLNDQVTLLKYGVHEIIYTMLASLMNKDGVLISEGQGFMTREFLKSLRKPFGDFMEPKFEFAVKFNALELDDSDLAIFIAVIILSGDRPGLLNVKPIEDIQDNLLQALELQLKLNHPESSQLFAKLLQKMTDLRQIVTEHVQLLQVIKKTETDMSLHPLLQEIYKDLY
The test can be described thus: PathHunter NHR protein interaction / nuclear translocation agonist test, PPAR Gamma. The following applies: for EC50: agonist mode, read-out: PPAR Gamma EC50; for Emax: read-out: PPAR Gamma Maximum Activation Response %.

Setting [4] is: relative to known PPARδ agonist L-165,041 = 100%.
Setting [5] is: relative to known PPARγ agonist Troglitazone = 100%.

Consider `CSc1ccc(C(=O)C2CN(C(=O)Oc3ccc(Cl)cc3)CC2c2cccc(OC(C)(C)C(=O)O)c2)cc1` (single isomer, unassigned) [Compound 34], for which, in test [1], the “PPAR Alpha Maximum Activation Response %” value is on record as “I (key: 100% ≥ I ≥ 80%; 80% ≥ II ≥ 50%; III < 50%)” and the EC50 is below 100 nM. For the same compound, in test [2], the “PPAR Delta Maximum Activation Response %” value was “III (key: 100% ≥ I ≥ 80%; 80% ≥ II ≥ 50%; III < 50%)” and the EC50 was above 250 nM. For the same compound, in test [3], the EC50 is above 250 nM and the Emax lay in the range of 80 to 100%.

Turning to `Cc1cc(CCC2CN(C(=O)Oc3ccccc3)CC2C(=O)c2ccc(F)cc2)cc(C)c1OC(C)(C)C(=O)O` (single isomer, unassigned) [Compound 63], the figures for the EC50 in test [1], in test [2] and in test [3] were below 100 nM, below 100 nM and 200 to 250 nM, respectively. Further, the Emax in test [1], in test [2] (setting [4]) and in test [3] (setting [5]) was 80 to 100% each time.

For the compound `CSc1ccc(C(=O)C2CN(C(=O)Oc3ccc(Cl)cc3)CC2c2cc(C)c(OC(C)(C)C(=O)O)c(C)c2)cc1` (single isomer, unassigned) [Compound 13], the values for the EC50 in test [1], in test [2] and in test [3] were below 100 nM, below 100 nM and above 250 nM, respectively. The figures for the Emax in test [1], in test [2] and in test [3] were 50 to 80%, 50 to 80% and 80 to 100%, respectively.

With `CSc1ccc(C(=O)C2CN(C(=O)Oc3ccccc3)CC2CCc2ccc(OC(C)(C)C(=O)O)c(C)c2)cc1` (single isomer, unassigned) [Compound 81], the EC50 in test [1] was below 100 nM; in test [2] it was 100 to 150 nM; in test [3] it was 200 to 250 nM. The Emax in test [1], in test [2] (setting [4]) and in test [3] (setting [5]) was 80 to 100% each time.

Consider `CSc1ccc(C(=O)C2CN(C(=O)Oc3ccc(Br)cc3)CC2c2cc(C)c(OC(C)(C)C(=O)O)c(C)c2)cc1` (stereo not drawn) [Compound 46], for which the EC50 in test [1] is below 100 nM; in test [2] it was below 100 nM; in test [3], above 250 nM. Further, the Emax in test [1], in test [2] and in test [3] was 80 to 100% each time.

For `CSc1ccc(C(=O)[C@H]2CN(C(=O)OC3CCC(C)CC3)C[C@@H]2Cc2cc(C)c(OC(C)(C)C(=O)O)c(C)c2)cc1` (mixture of isomers) [Compound 54], the EC50 in test [1] is below 100 nM; in test [2], 100 to 150 nM; in test [3], 200 to 250 nM. The Emax in test [1], in test [2] (setting [4]) and in test [3] (setting [5]) was 80 to 100% throughout.

`Cc1cc(CC[C@H]2CN(C(=O)Oc3ccccc3)C[C@@H]2C(=O)c2ccc([S+](C)[O-])cc2)cc(C)c1OC(C)(C)C(=O)O` (mixture of isomers) [Compound 67]: the Emax in test [1], in test [2] and in test [3] (setting [5]) was 80 to 100% each time. Besides, the EC50 in test [2] and in test [3] was above 250 nM in each case.

As for `COCCN1CC(CCc2cc(C)c(OC(C)(C)C(=O)O)c(C)c2)C(C(=O)c2ccc(SC)cc2)C1` (stereo not drawn) [Compound 59], the EC50 in test [1] and in test [2] was 200 to 250 nM each time. Further, the Emax in test [1] and in test [2] (setting [4]) was 50 to 80% in each case.

For the compound `CSc1ccc(C(=O)[C@H]2CN(C(=O)Nc3ccc(Cl)cc3)C[C@@H]2c2cc(C)c(OC(C)(C)C(=O)O)c(C)c2)cc1` (racemic) [Compound 37], the EC50 in test [1] is below 100 nM; in test [2], 200 to 250 nM. Moreover, the Emax in test [1] was 80 to 100%; in test [2], 50 to 80%.

Regarding `CSc1ccc(C(=O)C2CN(S(N)(=O)=O)CC2c2cc(C)c(OC(C)(C)C(=O)O)c(C)c2)cc1` (single isomer, unassigned) [Compound 19], the results for the EC50 in test [1] and in test [2] were 200 to 250 nM and above 250 nM, respectively. Besides, the Emax fell in the range of 80 to 100% in test [1] and 50 to 80% in test [2] (setting [4]).

With `CSc1ccc(C(=O)C2CN(C(=O)Oc3cccc(Cl)c3)CC2c2cc(C)c(OC(C)(C)C(=O)O)c(C)c2)cc1` (single isomer, unassigned) [Compound 38], in test [1], the EC50 was below 100 nM and the Emax fell in the range of 80 to 100%. Further, in test [2], the EC50 was in the range of 150 to 200 nM.

Take `CSc1ccc(C(=O)[C@@H]2CN(C(=O)Oc3ccc(C(C)C)cc3)C[C@H]2c2cc(C)c(OC(C)(C)C(=O)O)c(C)c2)cc1` (single isomer, unassigned) [Compound 40]: the EC50 in test [1] is below 100 nM; in test [2], 100 to 150 nM. Further, the Emax in test [1] and in test [2] (setting [4]) was 80 to 100% each time.

With `CSc1ccc(C(=O)[C@H]2CN(C(=O)Oc3cnn(C)c3)C[C@@H]2Cc2cc(C)c(OC(C)(C)C(=O)O)c(C)c2)cc1` (racemic) [Compound 48], the EC50 is below 100 nM in test [1] and 100 to 150 nM in test [2]. Besides, the Emax in test [1] and in test [2] was 50 to 80% throughout.

`CSc1ccc(C(=O)[C@@H]2CN(C(=O)Oc3ccc(Cl)c(Cl)c3)C[C@H]2c2cc(C)c(OC(C)(C)C(=O)O)c(C)c2)cc1` (single isomer, unassigned) [Compound 43]: the EC50 in test [1] and in test [2] was below 100 nM throughout. For the same compound, the Emax in test [1] and in test [2] (setting [4]) was 80 to 100% each time.

On to `CSc1ccc(C(=O)C2CN(C(=O)Oc3ccccc3Cl)C[C@@H]2c2cc(C)c(OC(C)(C)C(=O)O)c(C)c2)cc1` (mixture of isomers) [Compound 12], for which the EC50 in test [1] was 150 to 200 nM; in test [2] it was above 250 nM. Also, the Emax in test [1] lay in the range of 80 to 100%; in test [2], 50 to 80%.

On to `CSc1ccc(C(=O)[C@H]2CN(C(=O)Cc3ccc(Cl)cc3)C[C@@H]2c2cc(C)c(OC(C)(C)C(=O)O)c(C)c2)cc1` (racemic) [Compound 36], for which the EC50 was below 100 nM in test [1] and above 250 nM in test [2]. Further, the Emax in test [1] lay within 80 to 100%; in test [2] (setting [4]), 50 to 80%.

For the compound `CSc1ccc(C(=O)C2CN(C(=O)Oc3ccc(F)cc3)CC2Cc2cc(C)c(OC(C)(C)C(=O)O)c(C)c2)cc1` (single isomer, unassigned) [Compound 28], in test [1], the EC50 is below 100 nM and the Emax is 80 to 100%. In test [2], the EC50 was below 100 nM and the Emax was in the range of 50 to 80%.

Regarding `COc1ccc(OC(=O)N2CC(C(=O)c3ccc(SC)cc3)[C@@H](c3cc(C)c(OC(C)(C)C(=O)O)c(C)c3)C2)cc1` (mixture of isomers) [Compound 15], in test [1], the EC50 was in the range of 150 to 200 nM and the Emax lay in the range of 80 to 100%. Besides, in test [2], the EC50 is 200 to 250 nM and the Emax lay in the range of 50 to 80%.

`CSc1ccc(C(=O)C2CN(C(=O)OC(C)C)CC2c2cc(C)c(OC(C)(C)C(=O)O)c(C)c2)cc1` (single isomer, unassigned) [Compound 7]: in test [1], the EC50 is above 250 nM and the Emax lay within 50 to 80%. Further, in test [2], the EC50 is above 250 nM and the Emax is 50 to 80%.

Turning to `CSc1ccc(C(=O)[C@H]2CN(C(=O)OCCC(C)C)C[C@@H]2CCc2cc(C)c(OC(C)(C)C(=O)O)c(C)c2)cc1` (racemic) [Compound 72], the EC50 in test [1] is below 100 nM; in test [2] it was 100 to 150 nM. Also, the Emax in test [1] and in test [2] (setting [4]) was 80 to 100% each time.

Take `CSc1ccc(C(=O)C2CN(C(=O)Oc3ccc(F)cc3)CC2c2cc(C)c(OC(C)(C)C(=O)O)c(C)c2)cc1` (single isomer, unassigned) [Compound 35]: in test [1], the EC50 was in the range of 200 to 250 nM and the Emax was 80 to 100%. In test [2], the EC50 lay in the range of 150 to 200 nM and the Emax fell in the range of 50 to 80%.
